This passage reports XC50 results from ChEMBL document CHEMBL1157539, “Thousands of chemical starting points for antimalarial lead identification” (Nature, 2010).

Molecules are shown by their SMILES.

The assay deals with Plasmodium falciparum. Nature of the assay: GSK_TCMDC: Inhibition of Plasmodium falciparum 3D7 in whole erythrocytes, using parasite LDH activity as an index of growth. Type of assay: functional, organism-based. The note with it: Plasmodium falciparum, 3D7.
Regarding `Oc1cc(NCCCNC2CCc3c(Cl)cc(Cl)cc32)nc2ccccc12` (stereo not given), the XC50 worked out at 934 nM.

The compound `CCN1CCC(N(Cc2ccc(-c3ccc(C(F)(F)F)cc3)cc2)C(=O)Cn2c(CCc3cccc(F)c3F)cc(=O)c3c2CCC3)CC1` came in with an XC50 of 972 nM.

Turning to `O=C(/C=C/c1ccc(Cl)c(Cl)c1)NCCCCCN1CCCN(C(=O)Nc2ccc(F)c(Cl)c2)CC1`, the XC50 turned out to be 799 nM.

Compound `CN(CC(=O)N1CCN(S(=O)(=O)c2cccc(Cl)c2)CC1CN1CCCC1)c1ccc(Cl)c(Cl)c1` (stereo not given) had an XC50 of 1240 nM.

Regarding `COc1cc(C)c(C(O)CNC(C)CCc2ccccc2)cc1C` (stereo not given), the XC50 was found to be 730 nM.

`O=C(Nc1cccc(Cl)c1Cl)NC1CCN(Cc2cccc(O)c2)CC1` came in with an XC50 of 799 nM.

Compound `Cc1cc(N[C@@H](CC(C)C)C(=O)NCc2cccs2)nc(NCCc2ccccc2)n1` returned an XC50 of 1190 nM.

On to `CS(=O)(=O)N1CC2(CCN(CCC(NC(=S)Nc3ccccc3)c3ccc(Cl)c(Cl)c3)CC2)c2ccccc21` (stereo not given), for which the XC50 was 826 nM.

`N=C(N)c1ccc2[nH]c(-c3cc4cc(C(=N)N)ccc4o3)cc2c1` came in with an XC50 of 179 nM.

For the compound `Cc1cc(N[C@@H](CC(C)C)C(=O)NCCc2ccccc2)nc(Nc2ccccc2)n1`, the XC50 stood at 816 nM.

The compound `CN1CCCN(c2ccnc3cc4c(cc23)N(C(=O)c2ccc(Cl)cc2)CC4)CC1` showed an XC50 of 791 nM.

In turn, `COc1ccccc1CCN1CCC(CN(C)Cc2ccc(O)c(Cl)c2)CC1` registered an XC50 of 335 nM.

The compound `COc1cccc(-c2[nH]c3ccccc3c2CN2CCC(c3c(C)cccc3C)CC2)c1` gave an XC50 of 1020 nM.

With `CC(C)(C)c1ccc2nccc(Nc3cccc(O)c3)c2c1`, the XC50 amounted to 973 nM.

For the compound `Cc1noc(C)c1-c1cccc(CNCc2ccc(-c3cccc(-c4nc5ccccc5[nH]4)c3)cc2)c1`, the XC50 is 569 nM.

On to `COc1ccc(O)c(C(=O)c2cnc3c(c2)c(-c2ccc(F)cc2)c(C#N)c(=O)n3C)c1`, for which the XC50 amounted to 792 nM.

For `CCC(CSC1CCCCC1)N(C)CCN(C)C(CC)CSC1CCCCC1` (stereo not given), the XC50 worked out at 314 nM.

Regarding `O=C(NCCc1ccccc1)N(Cc1ccccc1-c1cccc(CNCc2ccc3c(c2)OCO3)c1)C1CCN(Cc2ccccc2)CC1`, the XC50 turned out to be 987 nM.

Compound `Cc1cc(=NN=Cc2cccc(F)c2)c2cc(F)ccc2[nH]1` yielded an XC50 of 478 nM.

Turning to `O=C(NCCc1ccccc1F)c1cc(Br)cc(N2CCN(c3ccncc3)CC2)c1`, the XC50 was found to be 756 nM.

The compound `O=C(Nc1ccc(F)cc1)NC1CCN(c2ccnc3cc(Cl)ccc23)CC1` displayed an XC50 of 408 nM.

Turning to `CN(C)c1ccc(CN2CCC(NC(=O)c3ccc(-c4cccc(C(F)(F)F)c4)s3)CC2)cc1`, the XC50 worked out at 1150 nM.

In turn, `Clc1ccc(-n2cnc3c(Nc4ccc(Oc5ccccc5)cc4)ncnc32)cc1Cl` came in with an XC50 of 747 nM.

Regarding `COc1cc2c(cc1OC)CN(CCc1ccc(NC(=O)c3cc4cc(OC(F)(F)F)ccc4[nH]3)cc1)CC2`, the XC50 stood at 535 nM.

Compound `Cc1cc(N(C)C2CCN(CC3CCCCC3)C2)nc(Nc2ccc(Cl)cc2)n1` (stereo not given) registered an XC50 of 679 nM.

As for `CCOC(=O)c1cc2c(CCN3C(=O)c4ccccc4C3=O)cn(C)c2cc1-c1ccncc1`, the XC50 is 583 nM.

`CC(C)CNCc1cccc(-c2ccc(CN(C(=O)c3cccs3)C3CCN(Cc4ccccc4)CC3)cc2)c1`: the XC50 was determined as 1010 nM.

The compound `Cc1nc2nc(N)nc(N)c2c(C)c1Cc1ccc(C(F)(F)F)cc1` yielded an XC50 of 747 nM.

In the case of `Cc1cc2c(cc1C(F)(F)F)N(C(=O)Nc1cc(C(=O)NCCN(C)C)cc(C(F)(F)F)c1)CC2`, the XC50 came to 730 nM.

Regarding `COc1ccc(CNC2CCN(C)CC2)cc1-c1ccc(S(=O)(=O)NCCc2ccccn2)c(F)c1`, the XC50 worked out at 819 nM.

In the case of `COc1ccc(S(=O)(=O)Nc2ccc(C(=O)NCc3ccc(C(F)(F)F)cc3)cc2)cc1N1CCN(CC2CC2)CC1`, the XC50 worked out at 1120 nM.

`c1cc2[nH]c(CCc3nc4cc(C5=NC6CCCCC6N5)ccc4[nH]3)nc2cc1C1=NC2CCCCC2N1` (stereo not given) had an XC50 of 230 nM.

`O=C(/C=C/c1ccc2ccccc2c1)NCC1(c2ccc(-c3ccccc3)cc2)CCOCC1` had an XC50 of 1520 nM.

`COc1ccccc1/C=C/C(=O)NCCC1CCN(CCCCCNC(=O)/C=C/c2ccc(Cl)c(Cl)c2)CC1` had an XC50 of 807 nM.

Take `CC(=O)Nc1ccc(CN2CCC(NC(=O)c3ccc(-c4cccc(F)c4)s3)CC2)cc1`: the XC50 was 1430 nM.

`Cc1cccc2nc(-c3ccc(-c4cccc(CN5CCN(CCO)CC5)c4)cc3)[nH]c12` gave an XC50 of 730 nM.

Take `c1csc(-c2nc(N3CCCCC3)ncc2-c2ccsc2)n1`: the XC50 stood at 136 nM.

Turning to `COc1ccc2nccc([C@@H](O)CN3CCC(NCc4ccc5sc(=O)[nH]c5c4)CC3)c2c1`, the XC50 was determined as 287 nM.

For `O=C1CSc2ccc(CNC3CCN(CCc4c(F)cnc5ccc(F)cc45)CC3)nc2N1`, the XC50 turned out to be 525 nM.

Compound `CN1CCN(CC(=O)Nc2cccc(-c3cccc(-c4nc5cc(C(F)(F)F)ccc5[nH]4)c3)c2)CC1` gave an XC50 of 372 nM.

`Oc1ccc(-c2cc(COc3ccccc3C(F)(F)F)c(C3=CCNCC3)cc2COc2ccccc2C(F)(F)F)cc1` gave an XC50 of 775 nM.

`Cc1cnc(NCC2CCCCC2)nc1N[C@@H](CO)C(=O)Nc1ccccc1` came in with an XC50 of 1100 nM.

Regarding `CN1CCC(N(Cc2ccc(-c3cnc(NCc4ccccc4)nc3)cc2)S(=O)(=O)c2ccccc2)CC1`, the XC50 was 777 nM.

As for `O=C(NC1CCC(N2CCCC(OCc3ccccc3)C2)CC1)c1cc2ccccc2[nH]1` (stereo not given), the XC50 worked out at 1210 nM.

With `OCCOCn1cnc2cnc(N[C@H]3OC[C@H](O)[C@@H](O)[C@@H]3O)nc21`, the XC50 is 1640 nM.

In turn, `COc1ccc2nccc([C@@H](O)CN3CCC(NCc4ccc5c(c4)nnn5C(C)C)CC3)c2c1` returned an XC50 of 642 nM.

Turning to `Cc1cc(=O)oc2c1ccc1oc(C(O)c3ccc(Cl)cc3)c(C)c12` (stereo not given), the XC50 was 130 nM.

In the case of `CC(C)CNCc1cccc(-c2ccc(CNC3CCN(Cc4ccccc4)CC3)cc2)c1`, the XC50 was found to be 271 nM.

As to `O=C(Nc1ccon1)c1cc(-c2cccnc2)nc2ccc(Cl)cc12`, the XC50 worked out at 786 nM.

Regarding `Cc1noc(C)c1-c1cccc(CNCc2cccc(-c3cccc(-c4nc5cc(C(F)(F)F)ccc5[nH]4)c3)c2)c1`, the XC50 turned out to be 456 nM.

`Cc1cccc(CNc2nc(C)cc(NCCC(=O)NCc3cccc(F)c3)n2)c1` gave an XC50 of 850 nM.

`Cc1cc(C(=O)Nc2ccc(OCc3ccccc3)cc2)on1` returned an XC50 of 991 nM.

`Cn1nc(-c2ccc(NC(=O)Nc3cc(C(F)(F)F)cc(C(F)(F)F)c3)c(F)c2)c2cnc(NCCN3CCOCC3)nc21` had an XC50 of 801 nM.

In turn, `O=C(Nc1ccc(-c2cccc(-c3nc4ccccc4[nH]3)c2)cc1)Nc1ccc(Cl)c(Cl)c1` had an XC50 of 459 nM.

Take `COc1ccc(-c2ccc(NC(=O)c3cccc(Cl)c3)cc2)cc1CN(C)CCO`: the XC50 worked out at 710 nM.

For the compound `CC(C)C(NC(=O)Cc1cccc2ccccc12)C(=O)Nc1cccc(C#N)c1` (stereo not given), the XC50 came out at 656 nM.

For the compound `CC(C)(C)c1cc(C(=O)N2CCN(c3ccc(C(F)(F)F)cn3)CC2)n(Cc2ccc(F)cc2)n1`, the XC50 worked out at 978 nM.

Turning to `O=S(=O)(c1ccccc1)n1ccc2cc(Nc3ncnc4cc(C#C[C@H]5CCCN5)sc34)ccc21`, the XC50 amounted to 1070 nM.

Consider `N#Cc1ccc2[nH]cc(CN3CCC4(CC3)CN(CCNCc3ccccc3)C(=O)O4)c2c1`, for which the XC50 amounted to 1160 nM.

`CC(C)NCc1ccc(-c2ccc(CN3CCCC(c4ccccc4)C3)cc2)c(C(=O)NC2Cc3ccccc3C2)c1` (stereo not given) came in with an XC50 of 991 nM.

In turn, `CCN(CC)CCOc1ccc(C(O)(C#CC(O)(c2ccc(Br)cc2)c2ccc(OCCN(CC)CC)cc2)c2ccc(Br)cc2)cc1` (stereo not given) had an XC50 of 616 nM.

Turning to `CCCC(C)n1ccc2c3c(N)nc(N)nc3ccc21` (stereo not given), the XC50 came to 47.6 nM.

Take `COc1cc2nc(NCCN3CCOCC3)n3nc(-c4ccccc4)nc3c2cc1OC`: the XC50 amounted to 215 nM.

Regarding `Cn1cccc1C(=O)C(=O)Nc1cccc(-c2ccc(-c3nc4cc(C(F)(F)F)ccc4[nH]3)cc2)c1`, the XC50 worked out at 785 nM.

The compound `COc1ccc(-c2cccc(NC(=O)c3cccs3)c2)cc1CN1CCCN(C)CC1` returned an XC50 of 698 nM.

`COc1ccc2c(NN=Cc3ccccn3)ccnc2c1` displayed an XC50 of 374 nM.

In turn, `N=c1c2c(n(Cc3cccc(Cl)c3)c3c1CCC3)CCCC2` registered an XC50 of 194 nM.

With `C[C@H](Nc1c(Nc2ccc3[nH]ccc3c2)c(=O)c1=O)C1CCCCC1`, the XC50 is 213 nM.

On to `CC(=O)c1ccc(Nc2c(C(N)=O)cnc3cc(-c4c(C)noc4C)ccc23)cc1`, for which the XC50 turned out to be 195 nM.

`CNC(=O)CNC(=O)COc1cccc2ccccc12` came in with an XC50 of 226 nM.

On to `COc1ccc(Br)cc1/C=C/C(=O)Nc1ccc(C2CCCN(C)C2)cc1` (stereo not given), for which the XC50 came out at 633 nM.

Compound `CC(=O)NCCCCC1NC2(C(=O)N(Cc3ccc(C(C)(C)C)cc3)c3ccccc32)C2C(=O)N(C3CCCCC3)C(=O)C12` (stereo not given) had an XC50 of 788 nM.

In turn, `Cc1ccc2c(c1)C1(CC(=O)N(CCc3scnc3C)C1=O)C(=O)N2Cc1ccccc1` (stereo not given) registered an XC50 of 1250 nM.

The compound `O=C(Nc1cccc(-c2nn3ncccc3c2-c2ccnc(Nc3cccc(-c4cnco4)c3)n2)c1)c1c(F)cccc1F` showed an XC50 of 166 nM.

For `Cc1cccc2nc(-c3ccc(-c4ccc(NC(=O)CN5CCN(C)CC5)cc4)cc3)[nH]c12`, the XC50 was 785 nM.

`Cc1c(S(=O)(=O)Nc2ccc3ccn(CCN(C)C)c3c2)sc2ccc(Cl)cc12` yielded an XC50 of 921 nM.

For the compound `CC1(C)NC(N)=NC(=N)N1OCOc1ccc(Cl)cc1`, the XC50 came to 4.6 nM.

`CCCNCc1ccc(-c2ccc(CN(CCOC)C(=O)CCC(=O)c3ccc(OC)c(F)c3)cc2)nc1`: the XC50 is 683 nM.

For `CCCCSc1ccc2nc(-c3c[nH]c4ccc(C#N)cc34)cn2c1`, the XC50 is 948 nM.

`CCNc1cc(C)nc(Nc2ccc(NC(=O)Cc3ccc(OC)cc3)cc2)n1` showed an XC50 of 1380 nM.

Compound `O=C(Cc1c[nH]cn1)Nc1ccc(-c2ccc(-c3nc4cc(C(F)(F)F)ccc4[nH]3)s2)cc1` displayed an XC50 of 657 nM.

As to `COc1ccc(CCN(C)CCCN2CCC(NC(=O)c3cccc4c(=O)c5ccccc5[nH]c34)CC2)cc1OC`, the XC50 amounted to 695 nM.

Consider `Cc1cccc2nc(-c3cccc(-c4ccc(NC(=O)C(C)CN5CCN(C)CC5)cc4)c3)[nH]c12` (stereo not given), for which the XC50 was found to be 175 nM.

Compound `CCC(C)NC(=O)Nc1ccc(-c2cccc(-c3nc4ccccc4[nH]3)c2)cc1` (stereo not given) returned an XC50 of 821 nM.

In turn, `N=C(N)c1ccc(Nc2nc(Nc3ccc(-c4ccccc4)cc3)ncc2[N+](=O)[O-])cc1` gave an XC50 of 804 nM.
